According to ChEMBL document CHEMBL1201862, “PubChem BioAssay data set” (2004):
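Interpolation was linear, between the two tested concentrations surrounding the appropriate level; five concentrations were tested over 48 hours in 96-well plates. Abbreviation: GI50, concentration required for 50% inhibition of growth.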 The source made the active and inactive calls. Rule as the data show it: active = GI50 up to about 1.1 µM and inactive = higher.

Experiments:
Assay in all cases: growth of human tumour cells (NCI), 48 h
RPMI-8226 = system: RPMI-8226
HCC 2998 = system: HCC 2998
OVCAR-3 = system: OVCAR-3
NCI-H23 = system: NCI-H23
HCT-15 = system: HCT-15
HOP-92 = system: HOP-92
SK-MEL-2 = system: SK-MEL-2
MDA-MB-231 = system: MDA-MB-231
Malme-3M = system: Malme-3M
BT-549 = system: BT-549
SR = system: SR
MDA-MB-435 = system: MDA-MB-435
SK-MEL-28 = system: SK-MEL-28
IGROV-1 = system: IGROV-1
Hs-578T = system: Hs-578T
SK-OV-3 = system: SK-OV-3
U-251 = system: U-251
SW-620 = system: SW-620
MOLT-4 = system: MOLT-4
HL-60 = system: HL-60

## NCCSCCc1ccccc1
RPMI-8226
  GI50: 44 µM (inactive)
HCC 2998
  GI50: > 100 µM (inactive)
OVCAR-3
  GI50: 68.2 µM (inactive)
NCI-H23
  GI50: > 100 µM (inactive)
HCT-15
  GI50: > 100 µM
HOP-92
  GI50: 72.1 µM (inactive)
SK-MEL-2
  GI50: > 100 µM (inactive)
MDA-MB-231
  GI50: > 100 µM (inactive)
Malme-3M
  GI50: > 100 µM (inactive)
BT-549
  GI50: > 100 µM (inactive)
SR
  GI50: 88.3 µM (inactive)
MDA-MB-435
  GI50: > 100 µM (inactive)
SK-MEL-28
  GI50: > 100 µM (inactive)
IGROV-1
  GI50: > 100 µM (inactive)
Hs-578T
  GI50: > 100 µM (inactive)
SK-OV-3
  GI50: > 100 µM (inactive)
U-251
  GI50: > 100 µM (inactive)
SW-620
  GI50: > 100 µM (inactive)

## CCOC(=O)C(C(N)=O)C1=Nc2cc([N+](=O)[O-])ccc2N/C1=C\C(=O)c1ccc(C)cc1 (stereo not given)
RPMI-8226
  GI50: 18.1 µM (inactive)
HCC 2998
  GI50: 23.3 µM (inactive)
OVCAR-3
  GI50: 15.8 µM (inactive)
NCI-H23
  GI50: 16.9 µM (inactive)
HCT-15
  GI50: 28.8 µM
HOP-92
  GI50: 18.1 µM (inactive)
SK-MEL-2
  GI50: 20.9 µM (inactive)
MDA-MB-231
  GI50: 18.4 µM (inactive)
Malme-3M
  GI50: 35.3 µM (inactive)
BT-549
  GI50: 22.6 µM (inactive)
SR
  GI50: 7.55 µM (inactive)
MDA-MB-435
  GI50: 39.4 µM (inactive)
SK-MEL-28
  GI50: 29.3 µM (inactive)
IGROV-1
  GI50: 17.4 µM (inactive)
Hs-578T
  GI50: 21.6 µM (inactive)
MOLT-4
  GI50: 0.522 µM (active)
SK-OV-3
  GI50: 18.3 µM (inactive)
U-251
  GI50: 15.5 µM (inactive)
SW-620
  GI50: 28.7 µM (inactive)

## O=C(NNC(=S)Nc1cccc(Cl)c1)c1cc(-c2ccccc2)nc2ccccc12
RPMI-8226
  GI50: 6.68 µM (inactive)
HCC 2998
  GI50: 12.6 µM (inactive)
OVCAR-3
  GI50: 15.1 µM (inactive)
NCI-H23
  GI50: 13.8 µM (inactive)
HCT-15
  GI50: 14.6 µM
HOP-92
  GI50: 12.5 µM (inactive)
SK-MEL-2
  GI50: 13.8 µM (inactive)
MDA-MB-231
  GI50: 13.1 µM (inactive)
Malme-3M
  GI50: 15.4 µM (inactive)
BT-549
  GI50: 19.4 µM (inactive)
SR
  GI50: 23.9 µM (inactive)
MDA-MB-435
  GI50: 16 µM (inactive)
SK-MEL-28
  GI50: 12.4 µM (inactive)
IGROV-1
  GI50: 18.7 µM (inactive)
Hs-578T
  GI50: 19.6 µM (inactive)
MOLT-4
  GI50: 28 µM (inactive)
SK-OV-3
  GI50: 19.9 µM (inactive)
U-251
  GI50: 12.3 µM (inactive)
SW-620
  GI50: 14.6 µM (inactive)

## COc1ccc2cc1Oc1ccc(cc1)CC1c3cc(OC)c(cc3CCN1C)Oc1c(OC)c(OC)cc3c1C(C2)N(C)CC3 (stereo not given)
HCC 2998
  GI50: 9.62 µM (inactive)
NCI-H23
  GI50: 15.1 µM (inactive)
HCT-15
  GI50: 9.06 µM
HOP-92
  GI50: 16.3 µM (inactive)
SK-MEL-2
  GI50: 12.8 µM (inactive)
MDA-MB-231
  GI50: 10 µM (inactive)
Malme-3M
  GI50: 11.4 µM (inactive)
BT-549
  GI50: 10.8 µM (inactive)
SR
  GI50: 1.17 µM (inactive)
MDA-MB-435
  GI50: 12 µM (inactive)
SK-MEL-28
  GI50: 14.5 µM (inactive)
IGROV-1
  GI50: 18.8 µM (inactive)
Hs-578T
  GI50: 10.8 µM (inactive)
MOLT-4
  GI50: 10.4 µM (inactive)
SK-OV-3
  GI50: 29.4 µM (inactive)
U-251
  GI50: 10.2 µM (inactive)
HL-60
  GI50: 4.71 µM (inactive)
SW-620
  GI50: 26.2 µM (inactive)

## C=C(C)C1CC2(C)C(C)CC(OC(=O)/C(C)=C\C)CC2C(OC(=O)/C(C)=C\C)C1O (stereo not given)
HCC 2998
  GI50: > 100 µM (inactive)
NCI-H23
  GI50: 61.9 µM (inactive)
HCT-15
  GI50: 42 µM
HOP-92
  GI50: 51.2 µM (inactive)
SK-MEL-2
  GI50: > 100 µM (inactive)
MDA-MB-231
  GI50: > 100 µM (inactive)
Malme-3M
  GI50: > 100 µM (inactive)
BT-549
  GI50: 62.1 µM (inactive)
SR
  GI50: 19.8 µM (inactive)
MDA-MB-435
  GI50: 55.3 µM (inactive)
SK-MEL-28
  GI50: > 100 µM (inactive)
IGROV-1
  GI50: 66.2 µM (inactive)
Hs-578T
  GI50: 34.7 µM (inactive)
MOLT-4
  GI50: 25.1 µM (inactive)
SK-OV-3
  GI50: > 100 µM (inactive)
U-251
  GI50: 75.5 µM (inactive)
HL-60
  GI50: 21.4 µM (inactive)
SW-620
  GI50: 61 µM (inactive)

## O=c1[nH]c(=O)n(C2C(CO)OC(CO)C2O)cc1F (stereo not given)
RPMI-8226
  GI50: > 100 µM (inactive)
HCC 2998
  GI50: > 100 µM (inactive)
OVCAR-3
  GI50: > 100 µM (inactive)
NCI-H23
  GI50: > 100 µM (inactive)
HCT-15
  GI50: > 100 µM
HOP-92
  GI50: > 100 µM (inactive)
SK-MEL-2
  GI50: > 100 µM (inactive)
MDA-MB-231
  GI50: > 100 µM (inactive)
Malme-3M
  GI50: > 100 µM (inactive)
BT-549
  GI50: > 100 µM (inactive)
SR
  GI50: > 100 µM (inactive)
MDA-MB-435
  GI50: > 100 µM (inactive)
SK-MEL-28
  GI50: > 100 µM (inactive)
IGROV-1
  GI50: > 100 µM (inactive)
Hs-578T
  GI50: > 100 µM (inactive)
MOLT-4
  GI50: > 100 µM (inactive)
SK-OV-3
  GI50: > 100 µM (inactive)
U-251
  GI50: > 100 µM (inactive)
SW-620
  GI50: > 100 µM (inactive)

## CCN(CC)COC(=S)S
HCC 2998
  GI50: > 49.9 µM (inactive)
OVCAR-3
  GI50: 0.0516 µM (active)
NCI-H23
  GI50: > 100 µM (inactive)
HCT-15
  GI50: > 100 µM
HOP-92
  GI50: > 100 µM (inactive)
SK-MEL-2
  GI50: 1.82 µM (inactive)
MDA-MB-231
  GI50: 35.4 µM (inactive)
Malme-3M
  GI50: 55.8 µM (inactive)
BT-549
  GI50: > 94.6 µM (inactive)
SR
  GI50: 0.233 µM (active)
MDA-MB-435
  GI50: 38.3 µM (inactive)
SK-MEL-28
  GI50: > 100 µM (inactive)
IGROV-1
  GI50: 89.7 µM (inactive)
Hs-578T
  GI50: > 100 µM (inactive)
MOLT-4
  GI50: 22.3 µM (inactive)
SK-OV-3
  GI50: > 100 µM (inactive)
U-251
  GI50: 30.3 µM (inactive)
HL-60
  GI50: < 0.01 µM (active)
SW-620
  GI50: 24.2 µM (inactive)
